This is an account of results in publication PMC9950143 (Scientific Reports, 2023).

Structures are written as SMILES. “Also recorded” adds a separate entry of the source. Counter-ions that a name gives are not always drawn.

For series [1] the following is noted: in vivo; cited from earlier work.
In series [2] the test system is MARV Ci67. It is filed as cell-based, Marburg virus.
Series [3] can be described thus: in vitro. The settings on record: human.
For series [4], the system named is SUDV Boniface. It is filed as cell-based, Sudan virus.
The subject of series [5] is HeLa cells.
The conditions of series [6]: human plasma maximum concentration; ref [1]–[19]; cited from earlier work.
Series [7] concerns SUDV Boniface and MARV Ci67. The format is cell-based, Sudan virus, Marburg virus.
In series [8] the test system is SUDV Boniface. As to the kind of experiment: microbe, parasite or virus in culture. To be noted: for EC50: Sudan ebolavirus, HeLa, read-out: Activity against SUDV EC50. The format is cell-based, Sudan virus.
A short description of series [9]: in vitro. The settings on record: human. This is another data set of the same source.
In series [10] the test system is MARV Ci67. Description: organism not typed. It is filed as cell-based, Marburg virus. The settings on record: HeLa, read-out: Activity against MARV EC50.
For series [11] the following is noted: ref PubChem compound summaries; cited from earlier work.
For series [12], the system named is yellow fever virus (YFV). The settings on record: read-out: EC50 against yellow fever virus (YFV); cited from earlier work.
For series [13], the system named is dengue virus-2 (DENV-2). The settings on record: read-out: EC50 against dengue virus-2 (DENV-2); cited from earlier work.
The subject of series [14] is West Niles virus (WNV). The settings on record: read-out: EC50 against West Niles virus (WNV); cited from earlier work.
In series [15] the test system is HCV 1b replicon. To be noted: read-out: EC50 against HCV 1b replicon (early studies); cited from earlier work. On the technique in general: In antiviral work, replicon cells carry a viral genome segment that copies itself.

As to `NC(=O)c1nc(F)c[nH]c1=O` [Favipiravir, 6-fluoro-3-oxo-3,4-dihydropyrazine-2-carboxamide], the “decrease of plasma median concentration on Day 4” value in [1] was ~ 50%. Also, the “maximum fold reduction of favipiravir EC50 in combination with RDV” value in series [2] is recorded as not below 4.8 fold; in [4] it was not below 21 fold. Besides, in [3], the CC50 is more than 750 µM.

For the compound `COc1ccc2[nH]c([S+]([O-])Cc3ncc(C)c(OC)c3C)nc2c1` (stereo not drawn) [Omeprazole], in [5] (human), the “RDV CC50 when combination” value is more than 2.5 µM and the “RDV CC50 when in combination” value is more than 2.5 µM. In addition, in series [6], the Cmax was 598 [12] ng/mL. In addition, in series [7], the “Drug-drug interaction? (RDV potency)” value was “No” and the “effect on RDV potency in combination studies” value (“effect on RDV potency” below) is recorded as “minimal effect on RDV potency”.

On to `CCN(CC)Cc1cc(Nc2ccnc3cc(Cl)ccc23)ccc1O` [Amodiaquine, Amodiaquine hydrochloride dihydrate], for which, in series [5] (human), the “RDV CC50 when combination” value is more than 2.5 µM and the “RDV CC50 when in combination” value is more than 2.5 µM. Further, in [6], the Cmax is 32.3 [2] ng/mL. In addition, the “fold lowering of RDV EC50 against SUDV” value in series [8] is more than 5 folds. The “Drug-drug interaction? (RDV potency)” value in [7] is on record as “Enhanced^5 for SUDV”.

`Cc1cccc(C)c1OCC(=O)N[C@@H](Cc1ccccc1)[C@@H](O)C[C@H](Cc1ccccc1)NC(=O)[C@H](C(C)C)N1CCCNC1=O` [Lopinavir]: the CC50 at 48 h in [9] is more than 100 µM. In [9] (CC50 (SUDV assay)), this compound returned a CC50 of 34.1 ± 0.9 µM. In addition, in [5] (human), the “RDV CC50 when combination” value was more than 2.5 µM and the “RDV CC50 when in combination” value is more than 2.5 µM. Further, the concentration giving a half-maximal response (EC50) in series [10] is more than 100 µM. Further, the “Plasma Protein Binding” value in [11] is listed as more than 98%. In series [8], the 50% effective concentration (EC50) is 2.32 ± 0.58 µM. For the same compound, the “Drug-drug interaction? (RDV potency)” value in series [7] is reported as “No for MARV; also recorded: Not antagonistic”.

For the compound `CC(=O)Nc1ccc(O)cc1` [Acetaminophen], in [5] (human), the “RDV CC50 when combination” value is listed as more than 2.5 µM and the “RDV CC50 when in combination” value is more than 2.5 µM. The Cmax in [6] was 11400 [1] ng/mL. In series [11], the “Plasma Protein Binding” value is reported as 10–25%. In addition, in [7], the “Drug-drug interaction? (RDV potency)” value was “No” and the “effect on RDV potency” value is “minimal effect on RDV potency”.

Take `Nc1ccn([C@@H]2CS[C@H](CO)O2)c(=O)n1` [Lamivudine]: in [5] (human), the “RDV CC50 when combination” value is on record as more than 2.5 µM and the “RDV CC50 when in combination” value was more than 2.5 µM. Besides, the Cmax in [6] was 2600 [15] ng/mL. Further, in series [11], the “Plasma Protein Binding” value was less than 36%. In [7], the “Drug-drug interaction? (RDV potency)” value is on record as “No” and the “effect on RDV potency” value was “minimal effect on RDV potency”.

For the compound `O=C1C(O)=C([C@H]2CC[C@H](c3ccc(Cl)cc3)CC2)C(=O)c2ccccc21` [Atovaquone], the CC50 in [9] (CC50 when tested alone) was in the range of 8 to 17 µM. Further, the “cytotoxicity of combination with RDV” value in [5] is listed as “Enhanced cytotoxicity”. The Cmax in series [6] was 8300 [5, 6] ng/mL. Also, the “Plasma Protein Binding” value in series [11] was 99.9%. For the same compound, in series [7], the “Drug-drug interaction? (RDV potency)” value was “No” and the “effect on RDV potency” value is “minimal effect on RDV potency”.

Take `[H]/N=C(\N/C(=N/[H])Nc1ccc(Cl)cc1)NC(C)C` [Proguanil, Proguanil hydrochloride]: in [5] (human), the “RDV CC50 when combination” value was more than 2.5 µM and the “RDV CC50 when in combination” value is reported as more than 2.5 µM. Besides, the Cmax in [6] was 918 [5] ng/mL. In series [7], the “Drug-drug interaction? (RDV potency)” value was “No” and the “effect on RDV potency” value is given as “minimal effect on RDV potency”.

`CN1C(=O)CN=C(c2ccccc2)c2cc(Cl)ccc21` [Diazepam]: in series [7], the “Drug-drug interaction? (RDV potency)” value was “No” and the “effect on RDV potency” value was “minimal effect on RDV potency”.

On to `O=C1Nc2ccc(Cl)cc2[C@@](C#CC2CC2)(C(F)(F)F)O1` [Efavirenz], for which the CC50 at 48 h in [9] came to 15.1 ± 4.1 µM. Also, the CC50 in series [9] (CC50 (SUDV assay)) was 20.7 ± 10.1 µM; in [9] (CC50 when tested alone), 14 to 28 µM. Moreover, in [5], the “cytotoxicity of combination with RDV” value is “Enhanced cytotoxicity”. Also, the concentration for a half-maximal effect (EC50) came out at 19.8 ± 0.1 µM in [10] and 2.24 ± 0.57 µM in series [8]. The Cmax in [6] is 12900 [14] ng/mL. Moreover, the “Plasma Protein Binding” value in series [11] was 99.5–99.75%. Also, the “Drug-drug interaction? (RDV potency)” value in series [7] was “Not antagonistic”.

Turning to `Cc1ncc([N+](=O)[O-])n1CCO` [Metronidazole], in series [5] (human), the “RDV CC50 when combination” value is more than 2.5 µM and the “RDV CC50 when in combination” value is more than 2.5 µM. Also, the Cmax in series [6] was 5100 [11] ng/mL. For the same compound, the “Plasma Protein Binding” value in series [11] is 20%. In series [7], the “Drug-drug interaction? (RDV potency)” value is “No” and the “effect on RDV potency” value was “minimal effect on RDV potency”.

`CO/N=C(\C(=O)N[C@@H]1C(=O)N2C(C(=O)O)=C(CSc3nc(=O)c(=O)[nH]n3C)CS[C@H]12)c1csc(N)n1` [Ceftriaxone, ceftriaxone disodium salt hemi(heptahydrate)]: in series [5] (human), the “CC50 (SUDV assay)” value is on record as 20.9 ± 10.1 µM, the “RDV CC50 when combination” value was more than 2.5 µM and the “RDV CC50 when in combination” value was more than 2.5 µM. Besides, the Cmax in [6] is 291000 [7] ng/mL. In [7], the “Drug-drug interaction? (RDV potency)” value is “Not antagonistic”.

In the case of `O=C(O)c1cn(C2CC2)c2cc(N3CCNCC3)c(F)cc2c1=O` [Ciprofloxacin], the “Drug-drug interaction? (RDV potency)” value in series [7] was “Enhanced for SUDV”.

For `CC(C)OC(=O)OCOP(=O)(CO[C@H](C)Cn1cnc2c(N)ncnc21)OCOC(=O)OC(C)C` [Tenofovir disoproxil fumarate], in [5] (human), the “RDV CC50 when combination” value is on record as more than 2.5 µM and the “RDV CC50 when in combination” value is reported as more than 2.5 µM. Moreover, the Cmax in [6] is 300 [18, 19] ng/mL. The “Plasma Protein Binding” value in [11] is recorded as less than 1%. In series [7], the “Drug-drug interaction? (RDV potency)” value is reported as “No” and the “effect on RDV potency” value is “minimal effect on RDV potency”.

In the case of `N#C[C@@]1(c2ccc3c(N)ncnn23)O[C@H](CO)[C@@H](O)[C@H]1O` [GS-441524], the EC50 was 11 µM in series [12], 9.46 µM in series [13], more than 30 µM in series [14] and 3.1 µM in series [15].

In turn, `CCCCN(CCCC)CC(O)c1cc(Cl)cc2c1-c1ccc(Cl)cc1/C2=C/c1ccc(Cl)cc1` (stereo not drawn) [Lumefantrine] displayed a CC50 at 48 h in series [9] of 37.3 ± 0.9 µM. For the same compound, the CC50 in [9] (CC50 (SUDV assay)) turned out to be 40 ± 1.2 µM. In addition, in [5] (human), the “RDV CC50 when combination” value is recorded as more than 2.5 µM and the “RDV CC50 when in combination” value is on record as more than 2.5 µM. In [10], the concentration for a half-maximal effect (EC50) worked out at 16.6 ± 7.3 µM. Also, the Cmax in series [6] is 6300 [10] ng/mL. Besides, the EC50 in series [8] stood at 9.6 ± 0.52 µM. Moreover, the “Drug-drug interaction? (RDV potency)” value in series [7] was “Not antagonistic”.

On to `C[C@H]1[C@H](OC(=O)CCC(=O)O)O[C@@H]2O[C@@]3(C)CC[C@H]4[C@H](C)CC[C@@H]1[C@@]24OO3` [Artesunate], for which, in series [5] (human), the “RDV CC50 when combination” value is more than 2.5 µM. Besides, the Cmax in [6] is 3260 [4] ng/mL. The “Plasma Protein Binding” value in series [11] is listed as 93%. Besides, the “Drug-drug interaction? (RDV potency)” value in [7] is “No”.

Turning to `CC(C)c1nc(CN(C)C(=O)N[C@H](C(=O)N[C@@H](Cc2ccccc2)C[C@H](O)[C@H](Cc2ccccc2)NC(=O)OCc2cncs2)C(C)C)cs1` [Ritonavir], the Cmax in series [6] is 1271 [17] ng/mL. Moreover, in series [7], the “Drug-drug interaction? (RDV potency)” value is given as “No” and the “effect on RDV potency” value is reported as “minimal effect on RDV potency”.

For the compound `CO[C@H]1O[C@@H]2O[C@@]3(C)CC[C@H]4[C@H](C)CC[C@@H]([C@H]1C)[C@@]24OO3` [Artemether], in series [5] (human), the “RDV CC50 when combination” value is reported as more than 2.5 µM and the “RDV CC50 when in combination” value is on record as more than 2.5 µM. In [6], the Cmax is 198 [3] ng/mL. The “Plasma Protein Binding” value in series [11] is reported as 95.4%. Also, in series [7], the “Drug-drug interaction? (RDV potency)” value is “No” and the “effect on RDV potency” value is “minimal effect on RDV potency”.

As to `Cc1nccn1CC1CCc2c(c3ccccc3n2C)C1=O` (stereo not drawn) [Ondansetron, ondansetron hydrochloride dihydrate], in [5] (human), the “RDV CC50 when combination” value is given as more than 2.5 µM and the “RDV CC50 when in combination” value was more than 2.5 µM. In addition, the Cmax in series [6] is 106 [13] ng/mL. Besides, in [11], the “Plasma Protein Binding” value is on record as 73%. Also, in series [7], the “Drug-drug interaction? (RDV potency)” value is “No” and the “effect on RDV potency” value was “minimal effect on RDV potency”.

As usually defined, the EC50 is the concentration that produces a half-maximal response.
